In the assay the target is human RIP1 kinase domain (2-375) (Homo sapiens (Human), UniProt Q13546). Kind of assay: biochemical. Type of assay: biochemical. Particulars: tight-binding apparent inhibition constant; human RIP1 kinase domain (2-375) 50 nM, 50 uM ATP, 2 hours; read-out: Ki. The procedure, abridged:
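Ki^app comes from Morrison tight-binding fits of fractional activity versus compound concentration. Activity was read as ADP production, via tracer displacement lowering fluorescence polarization (633 nm laser). Conditions: 2 h, 50 nM insect-cell-expressed enzyme, 50 uM ATP, 30 mM MgCl2, 1 mM DTT, 0.5% DMSO, pH 7.5 Hepes.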

human RIP1 kinase domain (2-375), sequence (Q13546 2-375): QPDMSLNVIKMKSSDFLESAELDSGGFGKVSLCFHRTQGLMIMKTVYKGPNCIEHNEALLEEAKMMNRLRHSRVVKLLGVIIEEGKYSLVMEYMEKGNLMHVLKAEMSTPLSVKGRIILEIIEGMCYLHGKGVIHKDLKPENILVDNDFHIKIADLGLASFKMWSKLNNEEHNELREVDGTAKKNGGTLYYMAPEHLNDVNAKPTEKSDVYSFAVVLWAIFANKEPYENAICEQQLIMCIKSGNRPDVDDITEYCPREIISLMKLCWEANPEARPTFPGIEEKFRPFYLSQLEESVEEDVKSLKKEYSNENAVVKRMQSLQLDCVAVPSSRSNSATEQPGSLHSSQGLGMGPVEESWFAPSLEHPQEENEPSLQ

Regarding `Cc1cc2n(n1)CC[C@H](NC(=O)c1ncc3cnn(-c4c(F)cccc4F)c3n1)C(=O)N2C` [Example 609, 1-(2,6-difluorophenyl)-N-[(6S)-2,4-dimethyl-5-oxo-7,8-dihydro-6H-pyrazolo[1,5-a][1,3]diazepin-6-yl]pyrazolo[3,4-d]pyrimidine-6-carboxamide], the Ki worked out at 71 nM.
Regarding `Cc1cc2n(n1)CC[C@H](NC(=O)c1nc3n(n1)[C@@H](c1ccccc1)CC3)C(=O)N2C` [Example 615, (5R)-5-phenyl-N-[(6S)-2,4-dimethyl-5-oxo-7,8-dihydro-6H-pyrazolo[1,5-a][1,3]diazepin-6-yl]-6,7-dihydro-5H-pyrrolo[1,2-b][1,2,4]triazole-2-carboxamide], the Ki was found to be 11 nM.
The value for `CN1C(=O)[C@@H](NC(=O)c2ncc3c(n2)C2(CCC2)OC3)COc2ccccc21` [Example 616, N-[(3S)-5-methyl-4-oxo-2,3-dihydro-1,5-benzoxazepin-3-yl]spiro[5H-furo[3,4-d]pyrimidine-7,1′-cyclobutan]-2-carboxamide] was 5.7 nM; that for `O=C(N[C@H]1COc2cc(F)cc(F)c2NC1=O)c1ncc2c(n1)C1(CCC1)OC2` [Example 617, N-[(3S)-6,8-difluoro-4-oxo-3,5-dihydro-2H-1,5-benzoxazepin-3-yl]spiro[5H-furo[3,4-d]pyrimidine-7,1′-cyclobutane]-2-carboxamide] was 11 nM.
Regarding `O=C(N[C@H]1CCc2cc(F)cc(F)c2NC1=O)c1ncc2c(n1)C1(CCC1)OC2` [Example 618], the Ki amounted to 24 nM.
With `CCC[C@]1(C)OCc2cnc(C(=O)N[C@H]3COc4cc(F)cc(F)c4NC3=O)nc21` [Example 619, (7S)-7-methyl-7-propyl-N-[(3S)-6,8-difluoro-4-oxo-3,5-dihydro-2H-1,5-benzoxazepin-3-yl]-5H-furo[3,4-d]pyrimidine-2-carboxamide], the Ki stood at 180 nM.
On to `CCC[C@@]1(C)OCc2cnc(C(=O)N[C@H]3COc4cc(F)cc(F)c4NC3=O)nc21` [Example 620, (7R)-7-methyl-7-propyl-N-[(3S)-6,8-difluoro-4-oxo-3,5-dihydro-2H-1,5-benzoxazepin-3-yl]-5H-furo[3,4-d]pyrimidine-2-carboxamide], for which the Ki was 14 nM.
The value for `O=C(N[C@H]1COc2cc(F)cc(F)c2NC1=O)c1nc2n(n1)[C@@H](c1ccccc1)CC2` [Example 621, (5R)-5-phenyl-N-[(3S)-6,8-difluoro-4-oxo-3,5-dihydro-2H-1,5-benzoxazepin-3-yl]-6,7-dihydro-5H-pyrrolo[1,2-b][1,2,4]triazole-2-carboxamide] was 3.1 nM; that for `O=C(N[C@H]1CCc2cc(F)cc(F)c2NC1=O)c1nc2n(n1)[C@@H](c1ccccc1)CC2` [Example 622, (5R)-5-phenyl-N-[(3S)-7,9-difluoro-2-oxo-1,3,4,5-tetrahydro-1-benzazepin-3-yl]-6,7-dihydro-5H-pyrrolo[1,2-b][1,2,4]triazole-2-carboxamide] was 5 nM; that for `CN1C(=O)[C@@H](NC(=O)c2nc3n(n2)[C@@H](c2ccccc2)CC3)COc2ccccc21` [Example 623, (5R)-5-phenyl-N-[(3S)-5-methyl-4-oxo-2,3-dihydro-1,5-benzoxazepin-3-yl]-6,7-dihydro-5H-pyrrolo[1,2-b][1,2,4]triazole-2-carboxamide] was 3.4 nM.
For `CN1C(=O)[C@@H](NC(=O)c2nc3n(n2)CCO[C@@H]3c2ccccc2F)COc2ccccc21` [Example 629, (8R)-8-(2-fluorophenyl)-N-[(3S)-5-methyl-4-oxo-2,3-dihydro-1,5-benzoxazepin-3-yl]-6,8-dihydro-5H-[1,2,4]triazolo[5,1-c][1,4]oxazine-2-carboxamide], the Ki stood at 14 nM.
Regarding `O=C(N[C@H]1CCc2cc(F)cc(F)c2NC1=O)c1nc2n(n1)CCO[C@H]2c1ccccc1F` [Example 630, (8S)-8-(2-fluorophenyl)-N-[(3S)-7,9-difluoro-2-oxo-1,3,4,5-tetrahydro-1-benzazepin-3-yl]-6,8-dihydro-5H-[1,2,4]triazolo[5,1-c][1,4]oxazine-2-carboxamide], the Ki worked out at 30 nM.
For `CN1C(=O)[C@@H](NC(=O)c2ncc3cnn(-c4ccccn4)c3n2)COc2ccccc21` [Example 631, 1-(2-pyridyl)-N-[(3S)-5-methyl-4-oxo-2,3-dihydro-1,5-benzoxazepin-3-yl]pyrazolo[3,4-d]pyrimidine-6-carboxamide], the Ki is 160 nM.
With `Cc1cc2n(n1)CC[C@H](NC(=O)c1ncc3cnn(-c4ccccn4)c3n1)C(=O)N2C` [Example 632, 1-(2-pyridyl)-N-[(6S)-2,4-dimethyl-5-oxo-7,8-dihydro-6H-pyrazolo[1,5-a][1,3]diazepin-6-yl]pyrazolo[3,4-d]pyrimidine-6-carboxamide], the Ki came to 3100 nM.
`Cc1cc2n(n1)CC[C@@H](NC(=O)c1ncc3cnn(-c4ccccn4)c3n1)C(=O)N2C` [Example 633, 1-(2-pyridyl)-N-[(6R)-2,4-dimethyl-5-oxo-7,8-dihydro-6H-pyrazolo[1,5-a][1,3]diazepin-6-yl]pyrazolo[3,4-d]pyrimidine-6-carboxamide]: the Ki was 3800 nM.
For `CN1C(=O)[C@@H](NC(=O)c2nc3n(n2)CCC32CCOCC2)COc2ccccc21` [Example 634, N-[(3S)-5-methyl-4-oxo-2,3-dihydro-1,5-benzoxazepin-3-yl]spiro[5,6-dihydropyrrolo[1,2-b][1,2,4]triazole-7,4′-tetrahydropyran]-2-carboxamide], the Ki turned out to be 240 nM.
Take `Cc1cc2n(n1)CC[C@H](NC(=O)c1nc3n(n1)CCC31CCOCC1)C(=O)N2C` [Example 635, N-[(6S)-2,4-dimethyl-5-oxo-7,8-dihydro-6H-pyrazolo[1,5-a][1,3]diazepin-6-yl]spiro[5,6-dihydropyrrolo[1,2-b][1,2,4]triazole-7,4′-tetrahydropyran]-2-carboxamide]: the Ki is 7300 nM.
As for `Cc1cc2n(n1)CC[C@H](NC(=O)c1nc3n(n1)CCN3c1ccccc1)C(=O)N2C` [Example 636, 4-phenyl-N-[(6S)-2,4-dimethyl-5-oxo-7,8-dihydro-6H-pyrazolo[1,5-a][1,3]diazepin-6-yl]-5,6-dihydroimidazo[1,2-b][1,2,4]triazole-2-carboxamide], the Ki was 130 nM.
As for `O=C(N[C@H]1CCc2cc(F)cc(F)c2NC1=O)c1ncc2c(n1)C1(CCCC1)OC2` [Example 637, N-[(3S)-7,9-difluoro-2-oxo-1,3,4,5-tetrahydro-1-benzazepin-3-yl]spiro[5H-furo[3,4-d]pyrimidine-7,1′-cyclopentane]-2-carboxamide], the Ki is 18 nM.
The value for `O=C(N[C@H]1CCc2cc(F)cc(F)c2NC1=O)c1nc2n(n1)CCO[C@H]2c1ccccc1` [Example 638, (8S)-8-phenyl-N-[(3S)-7,9-difluoro-2-oxo-1,3,4,5-tetrahydro-1-benzazepin-3-yl]-6,8-dihydro-5H-[1,2,4]triazolo[5,1-c][1,4]oxazine-2-carboxamide] was 38 nM; that for `O=C(N[C@H]1CCc2cc(F)cc(F)c2NC1=O)c1nc2n(n1)CCO[C@@H]2c1ccccc1` [Example 639, (8R)-8-phenyl-N-[(3S)-7,9-difluoro-2-oxo-1,3,4,5-tetrahydro-1-benzazepin-3-yl]-6,8-dihydro-5H-[1,2,4]triazolo[5,1-c][1,4]oxazine-2-carboxamide] was 420 nM.

The values are drawn from patent US10988459B2 (priority 2015, dated 2021).
